{"source": "ChEMBL document CHEMBL1201862", "about": "“PubChem BioAssay data set” (2004)", "key": {"[1]": {"molecular_target": "Beta-galactosidase (Escherichia coli, UniProt Q8VNN2)", "sequence (Q8VNN2 whole entry)": "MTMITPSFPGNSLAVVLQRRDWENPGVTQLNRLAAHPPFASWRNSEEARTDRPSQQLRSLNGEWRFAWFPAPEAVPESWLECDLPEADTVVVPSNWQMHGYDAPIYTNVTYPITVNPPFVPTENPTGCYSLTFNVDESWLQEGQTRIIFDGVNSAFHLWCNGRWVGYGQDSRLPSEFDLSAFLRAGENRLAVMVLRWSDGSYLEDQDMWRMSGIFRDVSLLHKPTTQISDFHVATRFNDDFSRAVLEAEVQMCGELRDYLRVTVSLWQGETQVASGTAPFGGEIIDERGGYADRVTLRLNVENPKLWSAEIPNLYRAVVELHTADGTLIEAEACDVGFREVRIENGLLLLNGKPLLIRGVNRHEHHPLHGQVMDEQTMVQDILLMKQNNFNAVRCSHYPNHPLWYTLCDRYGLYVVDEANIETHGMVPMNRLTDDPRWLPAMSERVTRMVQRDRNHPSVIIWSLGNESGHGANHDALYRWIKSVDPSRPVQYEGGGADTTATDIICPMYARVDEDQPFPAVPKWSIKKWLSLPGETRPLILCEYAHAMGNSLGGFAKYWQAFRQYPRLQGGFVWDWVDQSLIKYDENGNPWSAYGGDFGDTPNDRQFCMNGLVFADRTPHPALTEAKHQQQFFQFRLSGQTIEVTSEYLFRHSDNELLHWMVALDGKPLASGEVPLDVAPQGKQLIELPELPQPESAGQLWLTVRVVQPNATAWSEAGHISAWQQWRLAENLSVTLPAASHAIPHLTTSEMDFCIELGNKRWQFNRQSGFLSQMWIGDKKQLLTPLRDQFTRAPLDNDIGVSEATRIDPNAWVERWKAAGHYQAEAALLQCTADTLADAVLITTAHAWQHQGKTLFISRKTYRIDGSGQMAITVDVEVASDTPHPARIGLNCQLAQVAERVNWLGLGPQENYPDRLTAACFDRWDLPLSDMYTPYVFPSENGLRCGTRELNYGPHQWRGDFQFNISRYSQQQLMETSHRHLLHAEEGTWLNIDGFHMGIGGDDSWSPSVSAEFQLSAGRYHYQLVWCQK", "assay": "Dose response counterscreen for EBI2 assay utilizing the enzyme, b-galactosidase.", "type": "functional"}, "[2]": {"assay": "cells"}, "[3]": {"molecular_target": "Galanin receptor type 3 (Homo sapiens, UniProt O60755)", "sequence (O60755 whole entry)": "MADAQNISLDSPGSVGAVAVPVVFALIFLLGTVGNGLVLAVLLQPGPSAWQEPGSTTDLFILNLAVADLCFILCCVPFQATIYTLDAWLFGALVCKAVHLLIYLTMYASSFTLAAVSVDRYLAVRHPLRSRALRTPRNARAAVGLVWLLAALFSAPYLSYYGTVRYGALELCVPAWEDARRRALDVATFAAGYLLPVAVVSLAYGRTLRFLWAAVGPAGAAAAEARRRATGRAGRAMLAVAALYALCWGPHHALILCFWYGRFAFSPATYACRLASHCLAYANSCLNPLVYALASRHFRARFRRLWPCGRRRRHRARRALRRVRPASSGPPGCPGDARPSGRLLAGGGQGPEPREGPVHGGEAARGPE", "assay": "Fluorescence-based cell-based primary high throughput dose response assay to identify antagonists of the Galanin Receptor 3 (GalR3).", "type": "functional"}, "[4]": {"assay": "HEK-293T viability loss after treatment – luminescence, T-cell screen hits, cytotoxicity control for TCR NF-kB inhibitor project, dose response (AID 489026);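 note: cells exposed to compound about 14 hours before the viability readout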", "type": "functional, cell-based"}, "[5]": {"system": "INS1", "assay": "INS-1E survival protection against cytokine death – cell-based, luminescence, retest, dose response (AID 449756);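 note: cell death triggered by IL-1 beta plus TNF-alpha plus IFN-gamma mixture; protective hits raise ATP signal compared with cytokine alone wells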", "type": "functional", "details": "Rattus norvegicus"}, "[6]": {"molecular_target": "T1, COUP transcription factor 2 (Homo sapiens, UniProt P24468)", "T1 sequence (P24468 whole entry)": "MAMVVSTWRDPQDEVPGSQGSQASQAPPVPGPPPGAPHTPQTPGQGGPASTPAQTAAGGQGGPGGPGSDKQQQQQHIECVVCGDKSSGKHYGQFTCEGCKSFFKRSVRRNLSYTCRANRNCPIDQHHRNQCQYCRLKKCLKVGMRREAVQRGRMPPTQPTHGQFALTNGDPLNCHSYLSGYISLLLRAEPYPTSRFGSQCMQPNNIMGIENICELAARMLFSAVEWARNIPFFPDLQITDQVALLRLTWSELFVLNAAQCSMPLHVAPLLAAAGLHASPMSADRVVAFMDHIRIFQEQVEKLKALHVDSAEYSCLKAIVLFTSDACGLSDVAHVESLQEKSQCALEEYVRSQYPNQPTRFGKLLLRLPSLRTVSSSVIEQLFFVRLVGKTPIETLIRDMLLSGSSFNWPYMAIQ", "assay": "Luminescence-based cell-based high throughput dose response assay to identify inhibitors of COUP-TFII (NR2F2).", "type": "functional"}, "[7]": {"assay": "cells", "type": "functional, cell-based", "details": "HEK-CNG"}, "[8]": {"molecular_target": "T2, Corticotropin-releasing factor receptor 2/Corticotropin-releasing factor-binding protein (Homo sapiens, UniProt P24387+Q13324)", "T2 sequence (Q13324 whole entry)": "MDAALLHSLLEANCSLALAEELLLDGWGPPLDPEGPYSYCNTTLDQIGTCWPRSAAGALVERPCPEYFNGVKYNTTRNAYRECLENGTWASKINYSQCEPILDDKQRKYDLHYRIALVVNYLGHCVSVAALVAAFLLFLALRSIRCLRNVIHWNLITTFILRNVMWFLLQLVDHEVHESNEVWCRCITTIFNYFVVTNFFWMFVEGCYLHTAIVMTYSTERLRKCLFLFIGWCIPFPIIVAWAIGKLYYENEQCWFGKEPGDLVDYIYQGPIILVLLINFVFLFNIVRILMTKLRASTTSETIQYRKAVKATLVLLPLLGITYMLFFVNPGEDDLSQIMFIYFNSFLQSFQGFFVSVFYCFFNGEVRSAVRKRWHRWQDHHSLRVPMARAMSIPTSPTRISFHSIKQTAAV", "T2 sequence (P24387 whole entry)": "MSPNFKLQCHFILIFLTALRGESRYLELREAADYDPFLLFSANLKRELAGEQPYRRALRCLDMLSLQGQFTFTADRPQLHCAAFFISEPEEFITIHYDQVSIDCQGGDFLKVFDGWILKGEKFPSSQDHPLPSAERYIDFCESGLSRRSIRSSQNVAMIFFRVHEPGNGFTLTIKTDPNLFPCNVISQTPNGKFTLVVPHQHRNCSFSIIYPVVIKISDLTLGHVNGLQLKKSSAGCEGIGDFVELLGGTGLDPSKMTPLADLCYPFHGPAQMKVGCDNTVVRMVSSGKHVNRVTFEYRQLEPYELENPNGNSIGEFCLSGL", "assay": "activators of CRF receptor 2 with binding protein – uHTS hits, confirmation (AID 602473)", "type": "functional", "details": "read-out: EC50_Mean"}, "[9]": {"molecular_target": "T2, Corticotropin-releasing factor receptor 2/Corticotropin-releasing factor-binding protein", "assay": "Dose Response confirmation of uHTS hits for small molecule antagonists of the CRF-binding protein and CRF-R2 receptor complex.", "type": "functional", "details": "read-out: IC50_Mean"}, "[10]": {"system": "Vero", "assay": "viability loss in Vero cells – cell-based, plate reader, cherry-pick samples, cytotoxicity control, dose response (AID 687020)", "type": "functional", "details": "Chlorocebus sabaeus"}, "[11]": {"assay": "CMV-driven luciferase expression suppression in HEK293 – cell-based, luminescence, dry powder, counter-screen for Pax8 inhibitor project, dose response (AID 743020)", "type": "functional"}, "[12]": {"molecular_target": "Paired box protein Pax-8 (Homo sapiens, UniProt Q06710)", "sequence (Q06710 whole entry)": "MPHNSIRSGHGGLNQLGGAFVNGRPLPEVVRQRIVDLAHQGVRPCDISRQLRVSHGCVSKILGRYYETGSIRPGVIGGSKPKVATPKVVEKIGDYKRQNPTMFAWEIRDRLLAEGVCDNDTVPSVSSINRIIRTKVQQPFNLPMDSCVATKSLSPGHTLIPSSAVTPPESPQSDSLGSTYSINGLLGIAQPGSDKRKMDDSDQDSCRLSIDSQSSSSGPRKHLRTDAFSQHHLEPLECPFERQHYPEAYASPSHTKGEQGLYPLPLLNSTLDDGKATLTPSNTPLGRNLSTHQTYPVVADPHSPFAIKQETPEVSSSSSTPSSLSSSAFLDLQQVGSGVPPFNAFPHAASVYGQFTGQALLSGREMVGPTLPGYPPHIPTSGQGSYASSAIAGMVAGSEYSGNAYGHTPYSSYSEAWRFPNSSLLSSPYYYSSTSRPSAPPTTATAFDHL", "assay": "PAX8 transcriptional activity inhibition in RMG-I – RMG-I cells, luciferase, cherry-pick, dose response (AID 687027);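 note: luciferase reporter driven by Pax8 target thyroperoxidase promoter measured by SteadyGlo luminescence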", "type": "functional, cell-based"}}, "note": "The source made the active and inactive calls.", "data": [{"compound": "Cc1c(C(=O)N2CCN(c3ncccn3)CC2)oc2ccc(Cl)cc12", "values": [{"measurement": "IC50", "setting": "[1]", "value": "> 80 µM (inactive)"}]}, {"compound": "O=c1c2ccccc2n(CC(O)CN2CCCCC2)c2ccccc12", "note": "(configuration not stated)", "values": [{"measurement": "AC50", "setting": "[2]", "value": "3.43 µM (active)"}]}, {"compound": "Cn1nc(C(C)(C)C)cc1C(=O)NCc1cc(F)cc2c1OCOC2", "values": [{"measurement": "IC50", "setting": "[3]", "value": "0.987 µM (active)"}, {"measurement": "IC50", "setting": "[4]", "value": "> 80 µM (inactive)"}, {"measurement": "AC50", "setting": "[5]", "value": "4.13 µM (active)"}, {"measurement": "IC50", "setting": "[6]", "value": "6.69 µM (active)"}, {"measurement": "EC50", "setting": "[7]", "value": "> 29.9 µM (inactive)"}]}, {"compound": "CCCn1c(=N)n(CC(O)COc2ccc(C)cc2)c2ccccc21", "note": "(configuration not stated)", "values": [{"measurement": "EC50", "setting": "[8]", "value": "> 53 µM (inactive)"}, {"measurement": "IC50", "setting": "[9]", "value": "> 47.1 µM (inactive)"}, {"measurement": "AC50", "setting": "[10]", "value": "24.6 µM (active)"}]}, {"compound": "C[C@@H]1CCCCO[C@H](CN(C)CC2CCCCC2)[C@H](C)CN([C@@H](C)CO)C(=O)c2cc(NS(=O)(=O)c3ccc(Cl)cc3)ccc2O1", "values": [{"measurement": "AC50", "setting": "[11]", "value": "50.5 µM (active)"}, {"measurement": "AC50", "setting": "[12]", "value": "6.43 µM (active)"}]}]}
